# Values of other authors as cited in patent EP0769503A2, “A heparin complex and medical device having such substance” (priority 1995, dated 1997).
# Tested on: rat
# Settings: oral administration to rat
row,Compound,LD50
1,CCCCCCCCCCCCCCCCCC[N+](C)(C)C.[Cl-] [Trimethyloctadecylammonium chloride],1000 mg/kg
2,CCCCCCCCCCCC[N+](C)(C)Cc1ccccc1.[Cl-] [Laurylbenzyldimethylammonium chloride],>500 mg/kg
3,Benzalkonium dimethylammonium (C8-C18) chloride,445 mg/kg
4,CCCCCCCCCCCCCCCCCC[N+](C)(C)Cc1ccccc1.[Cl-] [Stearylbenzyldimethylammonium chloride],1250 mg/kg
5,CCCCCCCCCCCCCCCC[N+](C)(C)C.[Cl-] [Trimethylhexadecylammonium chloride],250 to 300 mg/kg
6,CCCCCCCCCCCCCCCCCC[N+](C)(C)CCCCCCCCCCCCCCCCCC.[Cl-] [Distearyldimethylammonium chloride],11300 mg/kg
